Data taken from PubChem BioAssay AID1918994 (Molecular Pharmacology Branch, DTP, NCI, 2023).

System: 292921-168-R-J2-PDC complex spheroid growth
Assay: Anticancer human tumor 292921-168-R-J2-PDC patient-derived pancreatic carcinoma cell line growth inhibition [AhR]
Conditions: for IC50: curve of first compound; for viability, T/C: stronger effect = lower value
From the text: Multicellular complex tumor spheroid response to aryl hydrocarbon receptor antagonists in combination with a variety of drugs and investigational agents in selected tumor cell lines
The current study was undertaken to assess response to aryl hydrocarbon receptor antagonists in combination with standard-of-care drugs and investigational agents in solid tumor complex spheroid models. Complex spheroids include a stromal component modeled by human endothelial cells (HUVEC) and fibroblasts modeled by human mesenchymal stem cells (MSCs). The concentration ranges selected for each drug and investigational agent were based upon clinically achievable concentrations if the clinical Cmax of the agent was known.
Compounds. The drugs and investigational agents: BAY 2416964 (NSC825713), GNF351 (NSC835774), CH-223191 (NSC835775), CPI-455 (NSC825282), aza-TdCyd (NSC777586), decitabine (NSC127716), belinostat (NSC758774), entinostat (NSC756642), pevonedistat (NSC761192), tazemetostat (NSC777109), talazoparib (NSC765396), olaparib (NSC753686), selinexor (NSC780203), nedisertib (M3814, NSC802822), bortezomib (NSC756655), venetoclax (NSC766270), doxorubicin (NSC123127), elimusertib (BAY189344, NSC800525), ceralasertib (AZD6738, NSC777638), TAK-243 (NSC785004), alisertib (NSC759677), etoposide (NSC141540), topotecan (NSC609699), eribulin (NSC707389), gemcitabine (NSC613327), carboplatin (NSC241240), cisplatin (NSC119875), and SN-38 (NSC673596) were obtained from the National Cancer Institute (NCI) Developmental Therapeutics Program Chemical Repository (32). The FDA-approved anticancer drug set is available from the Developmental Therapeutics Program at https://dtp.cancer.gov/organization/dscb/obtaining/available plates.htm. […] The stock solutions were prepared in dimethyl sulfoxide (DMSO, Sigma-Aldrich, St. Louis, MO, cat. D2650), except for the platinum compounds which were prepared in saline (Quality Biological, Gaithersburg, MD, cat. 114-055-101), at 800-fold the tested concentration and stored at -70 degrees C prior to their use. All drugs and investigational agents were tested over a range starting from a high concentration at or near the clinical Cmax and decreasing in half-log increments. If the clinical Cmax for an agent had not been determined, the highest concentration tested was 10 microM (Table 1).
Cell Culture. All cells were maintained in an incubator at 37 degrees C and 5% CO2 with 95% humidity. The PDC lines were cultured according to standard operating procedures established by the NCI PDMR (https://pdmr.cancer.gov). Briefly, all PDCs were thawed and cultured in Matrigel-coated flasks prepared with a working solution of 1X Ham's F-12 nutrient mix, without supplementation (Invitrogen, Waltham, MA, cat. 11765054), 100 U/mL penicillin-streptomycin (Invitrogen, cat. 15140122), and 2.5% Matrigel (Corning Inc., Corning, NY, cat. 354248) for the first three passages. All PDCs were cultured in complete DMEM/F-12 media containing advanced DMEM/F-12 (Invitrogen, cat. 12634028), 4.9% defined fetal bovine serum, heat inactivated (HyClone Laboratories Inc., Logan, UT, cat. SH30070.03HI), 389 ng/mL hydrocortisone (Sigma-Aldrich, cat. H4001), 9.7 ng/mL human EGF recombinant protein (Invitrogen, cat. PHG0313), 23.4 microg/mL adenine (Sigma-Aldrich, cat. A2786), 97.3 U/mL penicillin-streptomycin (Invitrogen, cat. 15140122), 1.9 mM L-glutamine (Invitrogen, cat. 25030081), and 9.7 microM Y-27632 dihydrochloride (Tocris Bioscience, Bristol, United Kingdom, cat. 1254). The PDCs were cultured in complete DMEM/F12 media without 10 microM Y-27632 dihydrochloride for at least two passages prior to the screen. The established cell lines NCI-H1341 and […] were cultured in DMEM/F-12, HEPES (Invitrogen, cat. 11330032), 5% defined fetal bovine serum (HyClone Laboratories Inc., cat. SH30070.03), ITS premix universal culture supplement [insulin (5 microg/mL), transferrin (5 microg/mL), and selenious acid (5 ng/mL)] […]

[1] = second compound 0.1 µM, first compound 0.0316 µM
[2] = second compound 0.1 µM, first compound 0.1 µM
[3] = second compound 0.316 µM, first compound 0.0316 µM
[4] = second compound 0.316 µM, first compound 0.1 µM
[5] = second compound 1 µM, first compound 0.0316 µM
[6] = second compound 1 µM, first compound 0.1 µM
[7] = second compound 3.16 µM, first compound 0.0316 µM
[8] = second compound 3.16 µM, first compound 0.1 µM
[9] = second compound 10 µM, first compound 0.0316 µM
[10] = second compound 10 µM, first compound 0.1 µM
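Further: spheroids exposed to compounds for seven days after three days of growth.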

Compound `CC[C@@]1(O)C(=O)OCc2c1cc1n(c2=O)Cc2cc3c(CN(C)C)c(O)ccc3nc2-1` + CC(CO)NC(=O)c1cc(-c2ccc(Cl)cc2)nn(-c2cnn(C)c2)c1=O has an IC50 (second compound 0.1 µM) of 29.2 nM, an IC50 (second compound 0.316 µM) of 28.1 nM and an IC50 (second compound 1 µM) of 30.7 nM. The IC50 (second compound 3.16 µM) was 25.5 nM, the IC50 (second compound 10 µM) was 18.4 nM and the viability, T/C (second compound 0.1 µM, first compound 0.000316 µM) was 101%. It also gave a viability, T/C (second compound 0.1 µM, first compound 0.001 µM) of 99.9%, a viability, T/C (second compound 0.1 µM, first compound 0.00316 µM) of 100% and a viability, T/C (second compound 0.1 µM, first compound 0.01 µM) of 78.6%. For the same compound, the viability, T/C [1] was 48.6%, the viability, T/C [2] was 21.8% and the viability, T/C (second compound 0.316 µM, first compound 0.000316 µM) was 104%. It also gave a viability, T/C (second compound 0.316 µM, first compound 0.001 µM) of 103%, a viability, T/C (second compound 0.316 µM, first compound 0.00316 µM) of 106% and a viability, T/C (second compound 0.316 µM, first compound 0.01 µM) of 75.2%. The viability, T/C [3] was 49.3%, the viability, T/C [4] was 24% and the viability, T/C (second compound 1 µM, first compound 0.000316 µM) was 101%. For the same compound, the viability, T/C (second compound 1 µM, first compound 0.001 µM) was 98.2%, the viability, T/C (second compound 1 µM, first compound 0.00316 µM) was 99.5% and the viability, T/C (second compound 1 µM, first compound 0.01 µM) was 77.4%. For the same compound, the viability, T/C [5] was 50.4%, the viability, T/C [6] was 23.3% and the viability, T/C (second compound 3.16 µM, first compound 0.000316 µM) was 91.4%. It also gave a viability, T/C (second compound 3.16 µM, first compound 0.001 µM) of 81.6%, a viability, T/C (second compound 3.16 µM, first compound 0.00316 µM) of 90.6% and a viability, T/C (second compound 3.16 µM, first compound 0.01 µM) of 72.5%. The viability, T/C [7] was 45.1%, the viability, T/C [8] was 23.6% and the viability, T/C (second compound 10 µM, first compound 0.000316 µM) was 68%. It also gave a viability, T/C (second compound 10 µM, first compound 0.001 µM) of 67.7%, a viability, T/C (second compound 10 µM, first compound 0.00316 µM) of 63.1% and a viability, T/C (second compound 10 µM, first compound 0.01 µM) of 62%. It also gave a viability, T/C [9] of 40% and a viability, T/C [10] of 22%.
`Nc1ccn(C2OC(CO)C(O)C2(F)F)c(=O)n1` (stereo not given) + CC(CO)NC(=O)c1cc(-c2ccc(Cl)cc2)nn(-c2cnn(C)c2)c1=O gave an IC50 (second compound 0.1 µM) of less than 31.6 nM, an IC50 (second compound 0.316 µM) of less than 31.6 nM and an IC50 (second compound 1 µM) of less than 31.6 nM. For the same compound, the IC50 (second compound 3.16 µM) was less than 31.6 nM, the IC50 (second compound 10 µM) was less than 31.6 nM and the viability, T/C [1] was 11.7%. The viability, T/C [2] was 10.2%, the viability, T/C (second compound 0.1 µM, first compound 0.316 µM) was 11.1% and the viability, T/C (second compound 0.1 µM, first compound 1 µM) was 11.1%. It also gave a viability, T/C (second compound 0.1 µM, first compound 3.16 µM) of 10.3%, a viability, T/C (second compound 0.1 µM, first compound 10 µM) of 6.84% and a viability, T/C [3] of 11.8%. The viability, T/C [4] was 11.3%, the viability, T/C (second compound 0.316 µM, first compound 0.316 µM) was 9.79% and the viability, T/C (second compound 0.316 µM, first compound 1 µM) was 10.8%. It also gave a viability, T/C (second compound 0.316 µM, first compound 3.16 µM) of 11.9%, a viability, T/C (second compound 0.316 µM, first compound 10 µM) of 6.25% and a viability, T/C [5] of 12%. For the same compound, the viability, T/C [6] was 11.8%, the viability, T/C (second compound 1 µM, first compound 0.316 µM) was 11.7% and the viability, T/C (second compound 1 µM, first compound 1 µM) was 11.1%. The viability, T/C (second compound 1 µM, first compound 3.16 µM) was 11.9%, the viability, T/C (second compound 1 µM, first compound 10 µM) was 7.23% and the viability, T/C [7] was 12.2%. It also gave a viability, T/C [8] of 10.9%, a viability, T/C (second compound 3.16 µM, first compound 0.316 µM) of 12.2% and a viability, T/C (second compound 3.16 µM, first compound 1 µM) of 11%. For the same compound, the viability, T/C (second compound 3.16 µM, first compound 3.16 µM) was 10.5%, the viability, T/C (second compound 3.16 µM, first compound 10 µM) was 6.81% and the viability, T/C [9] was 14.2%. The viability, T/C [10] was 12.8%, the viability, T/C (second compound 10 µM, first compound 0.316 µM) was 11.9% and the viability, T/C (second compound 10 µM, first compound 1 µM) was 11.6%. For the same compound, the viability, T/C (second compound 10 µM, first compound 3.16 µM) was 10.3% and the viability, T/C (second compound 10 µM, first compound 10 µM) was 8.31%.
